Columns and labels:
[1] = target: T1, GABAA2 receptors (α2, β3, γ2 receptor subunits transfected into Sf9 cells) (Homo sapiens, UniProt P18507+P47869); experiment: GABAA2 Binding Method ([3H]-Flunitrazepam displacement); conditions: [3H]-Flunitrazepam ~2 nM, α2β3γ2 Sf9 membranes, 1 hr at 4° C.
T1 construct: host or cells: Sf9 cells (membranes)
Outline: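 Displacement of [3H]-flunitrazepam (~2 nM in assay) from recombinant human α2β3γ2 receptors in Sf9 membranes; 1 h incubation at 4 °C, harvest by filtration. Values reported as percent of control, IC50 and Ki.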

GABAA receptor α1β2γ2 = target: T2, GABAA receptor α1β2γ2 (Homo sapiens, UniProt P14867+P18507); experiment: Two-electrode voltage-clamp potentiation of GABA EC10 current in Xenopus oocytes, GABAA1; format: cell-based; conditions: percentage potentiation of GABA EC10 current divided by that of diazepam
T2 construct: expressed in transfected cells; host or cells: Xenopus laevis oocytes injected with cRNA
T2 sequence (P14867 28-456): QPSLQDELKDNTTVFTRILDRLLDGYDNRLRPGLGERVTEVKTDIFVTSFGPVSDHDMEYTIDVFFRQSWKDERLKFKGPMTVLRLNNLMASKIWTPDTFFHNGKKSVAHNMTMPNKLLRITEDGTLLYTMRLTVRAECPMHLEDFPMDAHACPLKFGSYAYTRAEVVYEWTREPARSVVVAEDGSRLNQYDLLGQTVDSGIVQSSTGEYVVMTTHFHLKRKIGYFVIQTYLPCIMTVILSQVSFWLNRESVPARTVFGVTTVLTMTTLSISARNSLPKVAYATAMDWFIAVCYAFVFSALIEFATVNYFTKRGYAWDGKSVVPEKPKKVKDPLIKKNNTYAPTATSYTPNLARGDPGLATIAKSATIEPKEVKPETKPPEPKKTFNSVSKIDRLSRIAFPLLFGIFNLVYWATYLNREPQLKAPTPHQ
T2 sequence (P47870 25-512 partner limits assumed): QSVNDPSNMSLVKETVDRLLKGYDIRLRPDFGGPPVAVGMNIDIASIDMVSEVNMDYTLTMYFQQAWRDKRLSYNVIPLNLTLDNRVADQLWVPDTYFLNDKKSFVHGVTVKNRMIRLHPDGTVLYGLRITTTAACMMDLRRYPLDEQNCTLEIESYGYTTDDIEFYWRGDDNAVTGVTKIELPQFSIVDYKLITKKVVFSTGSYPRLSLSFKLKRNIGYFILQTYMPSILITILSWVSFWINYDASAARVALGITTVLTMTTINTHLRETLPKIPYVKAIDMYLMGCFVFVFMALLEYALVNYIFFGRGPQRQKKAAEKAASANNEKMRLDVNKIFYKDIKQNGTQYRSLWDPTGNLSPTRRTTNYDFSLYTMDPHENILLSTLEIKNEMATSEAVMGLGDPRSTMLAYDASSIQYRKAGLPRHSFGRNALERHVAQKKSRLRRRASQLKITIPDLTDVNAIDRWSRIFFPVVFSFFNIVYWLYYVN
T2 sequence (P18507 40-475): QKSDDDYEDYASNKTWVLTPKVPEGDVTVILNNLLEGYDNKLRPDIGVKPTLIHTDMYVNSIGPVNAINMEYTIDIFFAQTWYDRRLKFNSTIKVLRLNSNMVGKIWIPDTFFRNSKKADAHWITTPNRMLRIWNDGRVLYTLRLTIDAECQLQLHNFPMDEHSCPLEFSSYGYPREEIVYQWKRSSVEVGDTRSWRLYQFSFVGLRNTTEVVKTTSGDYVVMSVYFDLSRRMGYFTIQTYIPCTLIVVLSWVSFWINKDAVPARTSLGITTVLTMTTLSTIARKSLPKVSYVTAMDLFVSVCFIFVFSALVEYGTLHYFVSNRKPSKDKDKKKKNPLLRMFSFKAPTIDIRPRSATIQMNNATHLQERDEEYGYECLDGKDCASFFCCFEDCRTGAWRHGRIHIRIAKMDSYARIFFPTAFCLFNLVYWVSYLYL
Outline: (§1)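 Human GABAA receptors expressed in Xenopus oocytes by cRNA injection (α:β:γ molar ratio ~1:1:10 for α1β2γ2, 1:1:1 for α2β3γ2), recorded 2-10 days later by two-electrode voltage clamp at −60 mV in ND-96, pH 7.5. Modulator preapplied 30 s before GABA at per-oocyte EC10. Peak-current percent potentiation over GABA alone, normalised to diazepam.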

GABAA receptor α2β3γ2 = target: T3, GABAA receptor α2β3γ2 (Homo sapiens, UniProt P18507+P47869); experiment: Two-electrode voltage-clamp potentiation of GABA EC10 current in Xenopus oocytes, GABAA2; format: cell-based; conditions: percentage potentiation of GABA EC10 current divided by that of diazepam
T3 construct: expressed in transfected cells; host or cells: Xenopus laevis oocytes injected with cRNA
T3 sequence (P47869 29-451): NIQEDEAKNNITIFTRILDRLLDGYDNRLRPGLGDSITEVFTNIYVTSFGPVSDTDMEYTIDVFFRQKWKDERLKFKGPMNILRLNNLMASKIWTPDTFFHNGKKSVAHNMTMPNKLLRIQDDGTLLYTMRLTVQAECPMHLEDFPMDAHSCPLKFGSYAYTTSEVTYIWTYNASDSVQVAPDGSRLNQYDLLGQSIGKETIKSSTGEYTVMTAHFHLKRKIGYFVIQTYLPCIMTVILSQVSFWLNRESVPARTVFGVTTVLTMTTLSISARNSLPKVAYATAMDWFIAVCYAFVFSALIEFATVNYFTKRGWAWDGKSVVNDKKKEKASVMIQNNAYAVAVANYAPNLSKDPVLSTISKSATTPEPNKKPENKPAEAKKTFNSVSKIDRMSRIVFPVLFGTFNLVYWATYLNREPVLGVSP
T3 sequence (P28472 26-473 partner): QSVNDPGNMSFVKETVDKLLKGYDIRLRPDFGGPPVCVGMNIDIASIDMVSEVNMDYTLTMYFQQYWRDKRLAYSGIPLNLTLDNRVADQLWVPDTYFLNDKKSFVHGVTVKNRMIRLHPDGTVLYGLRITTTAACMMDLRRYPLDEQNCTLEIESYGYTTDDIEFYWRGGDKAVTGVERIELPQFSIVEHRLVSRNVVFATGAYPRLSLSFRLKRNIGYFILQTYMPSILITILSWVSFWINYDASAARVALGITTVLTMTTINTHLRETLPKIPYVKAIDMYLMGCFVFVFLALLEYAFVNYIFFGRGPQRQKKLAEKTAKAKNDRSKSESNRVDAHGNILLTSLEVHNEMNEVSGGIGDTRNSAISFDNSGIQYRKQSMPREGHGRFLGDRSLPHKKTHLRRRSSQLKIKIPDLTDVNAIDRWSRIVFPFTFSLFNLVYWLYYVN
T3 sequence (P18507 40-475): as the sequence (P18507 40-475) above
Outline: as §1

T1 sequence (P47869 29-451): as the sequence (P47869 29-451) above
T1 sequence (P28472 26-473 partner): as the sequence (P28472 26-473 partner) above
T1 sequence (P18507 40-475): as the sequence (P18507 40-475) above

SMILES	Ki [1] [nM]	Relative Potentiation for GABAA1 (GABAA receptor α1β2γ2)	Relative Potentiation for GABAA2 (GABAA receptor α2β3γ2)
CCN1Cc2nc3c(-c4cc(F)ccc4OC)cccc3c(N)c2C1=O [9-Amino-2-ethyl-5-(5-fluoro-2-methoxyphenyl)-2,3-dihydropyrrolo[3,4-b]quinolin-1-one]	27.4	0.054	0.17
CCN1Cc2nc3c(-c4cc(OC)ccc4F)c(F)ccc3c(N)c2C1=O [9-Amino-2-ethyl-6-fluoro-5-(2-fluoro-5-methoxyphenyl)-2,3-dihydropyrrolo[3,4-b]quinolin-1-one]	1.4	0.005	0.17
CCN1Cc2nc3c(-c4c(F)cccc4OC)c(F)ccc3c(N)c2C1=O [9-Amino-2-ethyl-6-fluoro-5-(2-fluoro-6-methoxyphenyl)-2,3-dihydropyrrolo[3,4-b]quinolin-1-one]	3.47	−0.12	0.093
CCN1Cc2nc3c(-c4cnccc4C)c(F)ccc3c(N)c2C1=O [9-Amino-2-ethyl-6-fluoro-5-(4-methylpyridin-3-yl)-2,3-dihydropyrrolo[3,4-b]quinolin-1-one]	2.01	−0.0025	0.094
CCN1Cc2nc3c(-c4ccc(OC)cc4OC)c(F)ccc3c(N)c2C1=O [9-Amino-5-(2,4-dimethoxy-phenyl)-2-ethyl-6-fluoro-2,3-dihydropyrrolo[3,4-b]quinolin-1-one]	4.84	0.072	0.11
COc1ccc(Cl)c(-c2cccc3c(N)c4c(nc23)CN(C2CC2)C4=O)c1 [9-Amino-5-(2-chloro-5-methoxyphenyl)-2-cyclopropyl-2,3-dihydropyrrolo[3,4-b]quinolin-1-one]	33.2	0.068	0.14
COc1cccc(-c2cccc3c(N)c4c(nc23)CN(C)C4=O)c1F [9-Amino-5-(2-fluoro-3-methoxyphenyl)-2-methyl-2,3-dihydropyrrolo[3,4-b]quinolin-1-one]	32.5	0.09	0.11
COc1cccc(F)c1-c1cccc2c(N)c3c(nc12)CN(C1CC(C)C1)C3=O (stereo not drawn) [9-Amino-5-(2-fluoro-6-methoxyphenyl)-2-(3-methylcyclobutyl)-2,3-dihydropyrrolo[3,4-b]quinolin-1-one]	3.75	0.11	0.36
COc1cccc(F)c1-c1cccc2c(N)c3c(nc12)CN(C(C)C)C3=O [9-Amino-5-(2-fluoro-6-methoxyphenyl)-2-isopropyl-2,3-dihydropyrrolo[3,4-b]quinolin-1-one]	26.8	−0.16	0.15
CCN1Cc2nc3c(-c4cc(Cl)ccc4OC)c(F)ccc3c(N)c2C1=O [9-Amino-5-(5-chloro-2-methoxyphenyl)-2-ethyl-6-fluoro-2,3-dihydropyrrolo[3,4-b]quinolin-1-one]	2.22	0.033	0.27
COc1cccc(F)c1-c1c(F)ccc2c(N)c3c(nc12)CN(C)C3=O [9-Amino-6-fluoro-5-(2-fluoro-6-methoxyphenyl)-2-methyl-2,3-dihydropyrrolo[3,4-b]quinolin-1-one]	8.14	−0.02	0.088
COc1ncc(-c2cccc3c(N)c4c(nc23)CN(Cc2ccc(OC)c(OC)c2)C4=O)c(OC)n1 [9-amino-2-(3,4-dimethoxybenzyl)-5-(2,4-dimethoxypyrimidin-5-yl)-2,3-dihydro-1H-pyrrolo[3,4-b]quinolin-1-one]	13.5	0.19	0.42
COc1ccc(CN2Cc3nc4c(-c5cnccc5OC)cccc4c(N)c3C2=O)cc1OC [9-amino-2-(3,4-dimethoxybenzyl)-5-(4-methoxypyridin-3-yl)-2,3-dihydro-1H-pyrrolo[3,4-b]quinolin-1-one]	1.5	0.23	0.37
COc1ccc(CN2Cc3nc4c(-c5cnccc5OC)cccc4c(N)c3C2=O)cc1 [9-amino-2-(4-methoxybenzyl)-5-(4-methoxypyridin-3-yl)-2,3-dihydro-1H-pyrrolo[3,4-b]quinolin-1-one]	3.35	0.32	0.52
Cc1cccc(C)c1-c1cccc2c(N)c3c(nc12)CN(C1CC1)C3=O [9-amino-2-cyclopropyl-5-(2,6-dimethylphenyl)-2,3-dihydro-1H-pyrrolo[3,4-b]quinolin-1-one]	23.9	−0.07	0.025
COc1ncc(-c2cccc3c(N)c4c(nc23)CN(C2CC2)C4=O)cc1C [9-amino-2-cyclopropyl-5-(6-methoxy-5-methylpyridin-3-yl)-2,3-dihydro-1H-pyrrolo[3,4-b]quinolin-1-one]	55.3	0.088	0.08
COc1ccc(-c2c(F)ccc3c(N)c4c(nc23)CN(C2CC2)C4=O)c(F)c1 [9-amino-2-cyclopropyl-6-fluoro-5-(2-fluoro-4-methoxyphenyl)-2,3-dihydro-1H-pyrrolo[3,4-b]quinolin-1-one]	7.27	−0.036	0.055
CCN1Cc2nc3c(-c4ccc(OC)cc4F)cccc3c(N)c2C1=O [9-amino-2-ethyl-5-(2-fluoro-4-methoxyphenyl)-2,3-dihydro-1H-pyrrolo[3,4-b]quinolin-1-one]	7.14	−0.008	0.036
CCN1Cc2nc3c(-c4cccc(F)c4OC)cccc3c(N)c2C1=O [9-amino-2-ethyl-5-(3-fluoro-2-methoxyphenyl)-2,3-dihydro-1H-pyrrolo[3,4-b]quinolin-1-one]	22.6	0.052	0.068
CCN1Cc2nc3c(-c4ccc(OC)c(F)c4)cccc3c(N)c2C1=O [9-amino-2-ethyl-5-(3-fluoro-4-methoxyphenyl)-2,3-dihydro-1H-pyrrolo[3,4-b]quinolin-1-one]	42.5	0.012	0.065
CCN1Cc2nc3c(-c4ccc(OC)cc4F)c(F)ccc3c(N)c2C1=O [9-amino-2-ethyl-6-fluoro-5-(2-fluoro-4-methoxyphenyl)-2,3-dihydro-1H-pyrrolo[3,4-b]quinolin-1-one]	1.49	−0.04	0.05
CCN1Cc2nc3c(-c4ccccc4F)c(F)ccc3c(N)c2C1=O [9-amino-2-ethyl-6-fluoro-5-(2-fluorophenyl)-2,3-dihydro-1H-pyrrolo[3,4-b]quinolin-1-one]	1.51	−0.04	0.038
CCCN1Cc2nc3c(-c4cccc(C)c4)cccc3c(N)c2C1=O [9-amino-2-propyl-5-(3-methylphenyl)-2,3-dihydro-1H-pyrrolo[3,4-b]quinolin-1-one]	44.6	0.38	0.29
COc1ccc(CN2Cc3nc4c(-c5cc(C)nn5C)cccc4c(N)c3C2=O)cc1 [9-amino-5-(1,3-dimethyl-1H-pyrazol-5-yl)-2-(4-methoxybenzyl)-2,3-dihydro-1H-pyrrolo[3,4-b]quinolin-1-one]	10.3	0.45	0.64
CCCN1Cc2nc3c(-c4cc(C)nn4C)cccc3c(N)c2C1=O [9-amino-5-(1,3-dimethyl-1H-pyrazol-5-yl)-2-propyl-2,3-dihydro-1H-pyrrolo[3,4-b]quinolin-1-one]	21.5	0.49	0.57
CCN1Cc2nc3c(-c4ccc(F)cc4F)c(F)ccc3c(N)c2C1=O [9-amino-5-(2,4-difluorophenyl)-2-ethyl-6-fluoro-2,3-dihydro-1H-pyrrolo[3,4-b]quinolin-1-one]	3.85	−0.038	0.064
CCCN1Cc2nc3c(-c4ccc(OC)cc4OC)cccc3c(N)c2C1=O [9-amino-5-(2,4-dimethoxyphenyl)-2-propyl-2,3-dihydro-1H-pyrrolo[3,4-b]quinolin-1-one]	49.8	0.25	0.31
CCCN1Cc2nc3c(-c4cc(Cl)ccc4Cl)cccc3c(N)c2C1=O [9-amino-5-(2,5-dichlorophenyl)-2-propyl-2,3-dihydro-1H-pyrrolo[3,4-b]quinolin-1-one]	11.8	0.31	0.32
CCCN1Cc2nc3c(-c4cc(F)ccc4F)cccc3c(N)c2C1=O [9-amino-5-(2,5-difluorophenyl)-2-propyl-2,3-dihydro-1H-pyrrolo[3,4-b]quinolin-1-one]	34.8	0.21	0.33

— US20080318943A1, “Compounds and Uses Thereof - 848” (ASTRAZENECA AB, priority 2007, published 2008)
